From ChEMBL document CHEMBL3045195, “Comparison of the activity of non-steroidal ecdysone agonists between dipteran and lepidopteran insects, using cell-based EcR reporter assays” (Pest Manag Sci, 2010) come the findings set out here.

Molecules are shown by their SMILES. Active and inactive are the calls of the source. No cut-off for these calls is given here.

Assay [1] concerns the target T1, Ecdysone receptor (Drosophila melanogaster) (UniProt P34021+P20153). Nature of the assay: Agonist activity at ecdysone receptor in Drosophila melanogaster S2 cells at 10 uM after 24 hr by luciferase reporter gene assay relative to 20-hydroxyecdysone. The assay is classed as cell-based.
For assay [2], the target named is T2, Ecdysone receptor (Bombyx mori, UniProt P49881).
T2 sequence (P49881 whole entry): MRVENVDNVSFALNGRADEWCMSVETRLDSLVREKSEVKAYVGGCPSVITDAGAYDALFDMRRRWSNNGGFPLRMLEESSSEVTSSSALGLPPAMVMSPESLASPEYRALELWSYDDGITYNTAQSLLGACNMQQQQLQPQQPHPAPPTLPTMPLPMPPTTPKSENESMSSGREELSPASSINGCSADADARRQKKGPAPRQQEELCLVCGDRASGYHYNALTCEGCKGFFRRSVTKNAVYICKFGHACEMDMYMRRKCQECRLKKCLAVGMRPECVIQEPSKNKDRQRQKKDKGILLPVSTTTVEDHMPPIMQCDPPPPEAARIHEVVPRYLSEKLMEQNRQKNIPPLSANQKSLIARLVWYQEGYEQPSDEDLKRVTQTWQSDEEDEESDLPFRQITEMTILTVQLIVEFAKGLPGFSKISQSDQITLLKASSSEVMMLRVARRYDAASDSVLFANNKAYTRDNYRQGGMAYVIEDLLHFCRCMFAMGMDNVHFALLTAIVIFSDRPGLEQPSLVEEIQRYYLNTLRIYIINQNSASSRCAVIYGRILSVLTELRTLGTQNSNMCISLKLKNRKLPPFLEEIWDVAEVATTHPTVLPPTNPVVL
Nature of the assay: (§1) Agonist activity at ecdysone receptor in Bombyx mori Bm5 cells after 24 hr by luciferase reporter gene assay. The assay is classed as cell-based.

Assay [3] has as its target T3, Ecdysone receptor (Drosophila melanogaster, UniProt P20153+P34021).
T3 sequence (P34021 whole entry): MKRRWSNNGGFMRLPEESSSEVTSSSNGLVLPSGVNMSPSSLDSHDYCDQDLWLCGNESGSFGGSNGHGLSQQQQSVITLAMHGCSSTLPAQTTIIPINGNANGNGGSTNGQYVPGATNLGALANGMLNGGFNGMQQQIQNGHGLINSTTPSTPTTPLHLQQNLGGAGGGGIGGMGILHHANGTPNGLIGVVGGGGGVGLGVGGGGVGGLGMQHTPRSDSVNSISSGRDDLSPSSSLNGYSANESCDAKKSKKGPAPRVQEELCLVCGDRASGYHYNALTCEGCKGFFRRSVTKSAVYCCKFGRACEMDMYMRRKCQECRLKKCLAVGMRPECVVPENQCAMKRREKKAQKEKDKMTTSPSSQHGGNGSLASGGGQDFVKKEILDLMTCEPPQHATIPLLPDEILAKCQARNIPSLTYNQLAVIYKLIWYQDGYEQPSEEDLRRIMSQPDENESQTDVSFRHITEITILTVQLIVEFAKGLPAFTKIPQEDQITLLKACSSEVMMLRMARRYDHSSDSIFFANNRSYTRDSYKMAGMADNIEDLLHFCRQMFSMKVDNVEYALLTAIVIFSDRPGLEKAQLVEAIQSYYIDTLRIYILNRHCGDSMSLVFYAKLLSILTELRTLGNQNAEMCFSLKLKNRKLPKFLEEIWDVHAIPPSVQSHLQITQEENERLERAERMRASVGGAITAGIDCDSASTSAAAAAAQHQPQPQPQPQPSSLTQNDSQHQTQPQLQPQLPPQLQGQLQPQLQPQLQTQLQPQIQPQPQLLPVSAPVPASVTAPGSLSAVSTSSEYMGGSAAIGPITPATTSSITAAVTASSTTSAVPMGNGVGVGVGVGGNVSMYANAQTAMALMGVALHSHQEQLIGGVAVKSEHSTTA
T3 sequence (P20153 whole entry): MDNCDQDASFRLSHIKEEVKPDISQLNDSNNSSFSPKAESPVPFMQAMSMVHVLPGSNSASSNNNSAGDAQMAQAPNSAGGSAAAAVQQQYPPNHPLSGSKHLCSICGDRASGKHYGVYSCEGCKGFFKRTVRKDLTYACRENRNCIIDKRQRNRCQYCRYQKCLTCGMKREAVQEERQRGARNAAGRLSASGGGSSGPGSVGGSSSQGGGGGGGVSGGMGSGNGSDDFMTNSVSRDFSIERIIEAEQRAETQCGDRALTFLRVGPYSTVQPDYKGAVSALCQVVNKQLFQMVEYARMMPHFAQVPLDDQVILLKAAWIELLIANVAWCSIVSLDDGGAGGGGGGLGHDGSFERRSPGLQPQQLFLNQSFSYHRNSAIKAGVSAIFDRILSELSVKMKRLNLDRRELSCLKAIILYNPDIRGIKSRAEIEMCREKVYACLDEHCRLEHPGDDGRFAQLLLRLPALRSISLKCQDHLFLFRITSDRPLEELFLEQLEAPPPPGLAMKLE
Nature of the assay: (§2) Agonist activity at ecdysone receptor in Drosophila melanogaster S2 cells after 24 hr by luciferase reporter gene assay. Type of assay: cell-based.

In assay [4] the target is T1, Ecdysone receptor (Drosophila melanogaster). Nature of the assay: Agonist activity at ecdysone receptor in Drosophila melanogaster S2 cells at 100 uM after 24 hr by luciferase reporter gene assay relative to 20-hydroxyecdysone. The assay is classed as cell-based.
Assay [5] addresses T3, Ecdysone receptor. Description: Agonist activity at ecdysone receptor in Drosophila melanogaster B2 cells assessed as reduction in cell density.
Assay [6] addresses T1, Ecdysone receptor (Drosophila melanogaster). The assay is described as §2. Type of assay: cell-based.
Assay [7] addresses T4, Ecdysone receptor (Bombyx mori) (UniProt P49881).
T4 sequence (whole entry): T2 sequence (P49881 whole entry)
The description is as §1. Type of assay: cell-based.

The target in assay [8] is T3, Ecdysone receptor. Nature of the assay: Agonist activity at ecdysone receptor in Drosophila melanogaster Kc cells after 24 hr by luciferase reporter gene assay.

With `Cc1ccc(C(=O)NN(C(=O)c2cc(C)cc(C)c2)C(C)(C)C)cc1`, the Efficacy in assay [1] worked out at 46%. Moreover, the EC50 was 0.012 µM in assay [2] and 11.2 µM in assay [3].

Turning to `CC(C)(C)N(NC(=O)c1ccccc1)C(=O)c1ccccc1F`, the half-maximal effective concentration (EC50) in assay [2] is 0.309 µM; in assay [3], 72.4 µM; in assay [5] it was 6.17 µM. Further, the Efficacy in assay [4] was 62%.

Turning to `CCCCCC(=O)N(NC(=O)c1ccc(CC)cc1)C(C)(C)C`, the EC50 in assay [2] is 2.82 µM. Further, the pEC50 entry in assay [6] is “inactive”.

Regarding `CCc1ccc(C(=O)NN(C(=O)CCC(C)C)C(C)(C)C)cc1`, the EC50 in assay [2] is 0.832 µM. The pEC50 entry in assay [6] is “inactive”.

For the compound `CC(C)(C)N(NC(=O)c1ccccc1)C(=O)c1ccccc1Cl`, the Efficacy in assay [1] was found to be 57%. Moreover, the EC50 in assay [2] was 0.0759 µM; in assay [3], 8.51 µM.

For `CCCCCC(=O)N(NC(=O)c1cc(C)cc(C)c1)C(C)(C)C`, in assay [2], the EC50 was 8.71 µM. Besides, the pEC50 result in assay [6] was “inactive”.

In assay [1], `CCCc1ccc(C(=O)NN(C(=O)c2ccccc2Cl)C(C)(C)C)cc1` had an Efficacy of 52%. The EC50 in assay [2] was 0.00912 µM; in assay [3], 9.77 µM.

As to `Cc1cc(C)cc(C(=O)NN(C(=O)CCC(C)C)C(C)(C)C)c1`, in assay [2], the response was half-maximal at 14.5 µM (EC50). In addition, the pEC50 result in assay [6] is “inactive”.

Take `CCc1ccc(C(=O)NN(C(=O)C2CCCCC2)C(C)(C)C)cc1`: the EC50 in assay [2] is 9.33 µM. Besides, the pEC50 result in assay [6] is “inactive”.

For the compound `CC(C)(C)N(NC(=O)c1ccccc1)C(=O)c1ccccc1[N+](=O)[O-]`, the EC50 in assay [2] was 0.224 µM; in assay [3], 15.5 µM; in assay [5] it was 1.1 µM. In assay [4], this compound showed an Efficacy of 86%.

`Cc1ccc(NC2CCN(C(=O)c3ccc(Cl)cc3)CC2)cc1`: the pEC50 result in assay [7] and in assay [6] was “inactive” each time.

In the case of `CN(C(=O)c1ccccc1)N(C)C(=O)c1ccccc1`, the EC50 in assay [2] was above 100 µM. For the same compound, the pEC50 entry in assay [6] is “inactive”.

In the case of `CCc1ccc(C(=O)NC2(C(=O)c3cc(C)cc(C)c3)CCCCC2)cc1`, in assay [1], the Efficacy amounted to 4%. In assay [3], this compound showed an EC50 above 10 µM.

The compound `CCCCC(=O)NN(C(=O)c1cc(C)cc(C)c1)C(C)(C)C` showed an EC50 in assay [2] of 1.86 µM. In addition, in assay [6], the pEC50 entry is “inactive”.

On to `Cc1ccccc1C(=O)N(NC(=O)c1ccccc1)C(C)(C)C`, for which the EC50 in assay [2] was 0.224 µM; in assay [3], 120 µM; in assay [5] it was 3.8 µM. Also, the Efficacy in assay [4] was 45%.

In turn, `CCCCCCC(=O)N(NC(=O)c1ccccc1)C(C)(C)C` had an EC50 in assay [2] of 7.24 µM. Also, in assay [6], the pEC50 entry was “inactive”.

As to `CC(C)(C)N(NC(=O)c1ccccc1)C(=O)c1ccccc1Br`, the EC50 in assay [2] was 0.17 µM; in assay [3] it was 81.3 µM; in assay [5], 0.794 µM. The compound further gave an Efficacy in assay [4] of 55%.

Take `CC(C)(C)N(NC(=O)c1cccc(Cl)c1)C(=O)c1ccccc1Cl`: the EC50 in assay [2] is 0.155 µM; in assay [3] it was 16.6 µM; in assay [5] it was 1.2 µM. In addition, the Efficacy in assay [4] amounted to 80%.

As to `Cc1ccc(NC2CC(C)N(C(=O)c3ccc(C(C)(C)C)cc3)c3ccc(C)cc32)cc1` (stereo not given), the pEC50 result in assay [7] and in assay [6] was “inactive” each time.

`Cc1cc(C)cc(C(=O)N(NC(=O)c2ccc(Cl)cc2)C(C)(C)C)c1` had an Efficacy in assay [1] of 42%. Also, the figures for the EC50 in assay [2] and in assay [3] were 0.0191 µM and 16.6 µM, respectively.

As for `CC(C)(C)N(NC(=O)c1ccccc1Cl)C(=O)c1ccccc1Cl`, the EC50 in assay [2] was 0.331 µM; in assay [3], 105 µM; in assay [5], 2.57 µM. In addition, in assay [4], the Efficacy turned out to be 48%.

On to `CCc1ccc(C(=O)NC(CC)(CC)C(=O)c2cc(C)cc(C)c2)cc1`, for which the pEC50 entry in assay [6] was “inactive”.

Take `CN(NC(=O)c1ccccc1)C(=O)c1ccccc1`: the EC50 in assay [2] is above 100 µM. For the same compound, the pEC50 entry in assay [6] was “inactive”.

With `CC1CCc2ccccc2N1C(=O)c1ccc(Cl)cc1` (stereo not given), the pEC50 entry in assay [7] and in assay [6] was “inactive” throughout.

With `CC(C)(C)N(NC(=O)c1ccccc1)C(=O)c1ccccc1C(F)(F)F`, the EC50 in assay [2] is 0.631 µM; in assay [3], 33.9 µM; in assay [5], 3.63 µM. The compound also gave an Efficacy in assay [4] of 63%.

As to `CCCCCCC(=O)N(NC(=O)c1ccc(CC)cc1)C(C)(C)C`, the EC50 in assay [2] is 11.7 µM. Moreover, the pEC50 result in assay [6] was “inactive”.

In the case of `CC(C)(C)N(NC(=O)c1ccccc1)C(=O)c1ccccc1I`, the figures for the EC50 in assay [2], in assay [3] and in assay [5] were 0.105 µM, 91.2 µM and 1.2 µM, respectively. Further, the Efficacy in assay [4] came to 52%.

Compound `CC(C)(C)N(NC(=O)c1ccc(-c2ccccc2)cc1)C(=O)c1ccccc1Cl` had an EC50 in assay [8] above 100 µM.

In assay [2], `Cc1cc(C)cc(C(=O)NN(C(=O)CCCC(C)C)C(C)(C)C)c1` gave an EC50 above 100 µM. The pEC50 result in assay [6] was “inactive”.

In assay [2], `CC(C)(C)N(NC(=O)c1ccccc1)C(=O)C1CCCCC1` showed an EC50 of 46.8 µM. Besides, the pEC50 result in assay [6] is “inactive”.

In the case of `Cc1ccc(N(C(=O)c2ccc(Cl)cc2)C2CC(C)N(C(=O)c3ccc(Cl)cc3)c3ccc(C)cc32)cc1` (stereo not given), the pEC50 result in assay [7] and in assay [6] was “inactive” in each case.

As for `Cc1ccc(NC2CCN(C(=O)c3ccc(Cl)cc3)c3ccccc32)cc1` (stereo not given), the pEC50 result in assay [7] and in assay [6] was “inactive” throughout.

For the compound `Cc1ccc(C(=O)NN(C(=O)c2ccccc2Cl)C(C)(C)C)cc1`, the EC50 in assay [2] is 0.0186 µM; in assay [3] it was 3.24 µM; in assay [5], 0.219 µM. The same compound showed an Efficacy in assay [4] of 79%.

Regarding `COc1ccccc1C(=O)N(NC(=O)c1ccccc1)C(C)(C)C`, the EC50 in assay [2] was 0.525 µM; in assay [3] it was 120 µM; in assay [5], 3.8 µM. The same compound yielded an Efficacy in assay [4] of 44%.

For the compound `CCc1ccc(C(=O)NN(C(=O)c2ccccc2Cl)C(C)(C)C)cc1`, the EC50 in assay [2] is 0.00575 µM; in assay [3], 15.5 µM; in assay [5], 0.219 µM. The Efficacy in assay [4] was determined as 71%.

With `CCCCCCCC(=O)NN(C(=O)c1cc(C)cc(C)c1)C(C)(C)C`, the response in assay [2] was half-maximal at 0.0977 µM (EC50). Moreover, in assay [6], the pEC50 result was “inactive”.

Take `CCCCCCCCCC(=O)NN(C(=O)c1cc(C)cc(C)c1)C(C)(C)C`: in assay [2], the EC50 was 1.55 µM. Moreover, the pEC50 entry in assay [6] is “inactive”.

Regarding `CCCCN(C(=O)c1ccccc1)N(C(=O)c1ccccc1)C(C)(C)C`, in assay [2], the EC50 was above 100 µM. For the same compound, the pEC50 entry in assay [6] was “inactive”.
